Earlier results on 1 compound are cited in patent publication US11197842B2 (BIOGEN MA INC., priority 2014, dated 2021).

Counter-ions that a name gives are not always drawn.

The conditions of this data set: species not stated.

Turning to `COC(=O)/C=C/C(=O)O` [MMF, monomethyl fumarate], the “half-life of MMF” value is reported as “approximately 1 hour”.
